Experiments:
[1] = Surfactant adsorption/spreading at the air/water interface; format: physicochemical
Excerpt: Stabilized dispersions formed according to the present invention provide for enhanced surfactant spreading at the pulmonary air/water interface. In this regard, the equilibrium surface tension of dimyristoylphosphatidylcholine is ca. 22 mN/m. […] The slow adsorption for liposomes is due to the slow molecular diffusion of DMPC through the water phase. […] This rapid spreading and reduction of surface tension is indicative of what would occur upon contacting the perforated microstructures with a wetted pulmonary membrane.

[2] = tested on: Streptococcus pneumoniae; test: Acute pneumonia model, survival after antibiotic treatment; format: in vivo, Male Wistar rats; settings: rats inoculated intratracheally with 10^9 cfu S. pneumoniae; 10 mg ampicillin intramuscular one day after inoculation
Excerpt: Male Wistar rats […] were inoculated intratracheally with 10^9 colony forming units of Streptococcus pneumoniae. The model is an acute pneumonia model with 100% of untreated control animals dying within 4 days of inoculation.

[3] = set-up: species or system rats; settings: Wistar, rat, in vivo
Procedure: Ampicillin concentrations in lung tissue and serum were measured for the two treatment groups in Example XV by a bioassay method. In this method, 60 μl of lung tissue homogenate, or serum obtained from the rats at various points after dosing is placed on a sterile disk. The desk is them placed on an agar plate covered with S. pneumoniae and incubated for 24 hr. […] The no-growth zones were quantitated, and concentrations of antibiotic were calculated based on a standard curve.

[4] = Gentamicin biodistribution in lung lobes by immunoassay; format: in vivo, New Zealand white rabbits; settings: rabbits; 5 mg/kg; one hour post-administration
Excerpt: Individual lobes of the lungs were collected and analyzed quantitatively for gentamicin by an immunoassay method. […] Excellent biodistribution across the lung lobes was observed following either IM or LDI administration.

[5] = tested on: serum glucose; test: Serum glucose levels after LDI or IM insulin administration; format: in vivo; settings: fasting rabbits
Procedure: In the case of LDI administration, rabbits were anesthetized, intubated, placed on a respirator, and their lungs were instilled with ca. 4.5 ml/kg of perflubron. […] Control animals were injected IM with a similar dose of insulin (Humulin R).

[6] = Plasma insulin pharmacokinetics after LDI or IM administration (radioimmunoassay); format: in vivo; settings: fasting rabbits

## CCCCCCCCCCCCCC(=O)OC[C@H](COP(=O)([O-])OCC[N+](C)(C)C)OC(=O)CCCCCCCCCCCCC [DMPC, dimyristoylphosphatidylcholine]
[1]
  equilibrium surface tension: ca. 22 mN/m

## CC1(C)S[C@@H]2[C@H](NC(=O)[C@H](N)c3ccccc3)C(=O)N2[C@H]1C(=O)O [Ampicillin]
[2]
  animals surviving to 10 days: 27%
[3]
  local lung concentrations with LDI delivery relative to IM: 250 times higher
  persistence of local lung concentrations with LDI delivery: persisted for several days
  persistence of serum levels following LDI administration: at least 4 hours
[3]; 2 h
  serum ampicillin levels following IM administration: undetectable

## gentamicin
[4]
  lung gentamicin concentrations following LDI relative to IM: ca. 2 orders of magnitude higher

## Human Insulin
[5]; IM Humulin R, 0 min
  Serum glucose level: 184.2 mg/dL
[5]; IM Humulin R, 5 min
  Serum glucose level: 253.6 mg/dL
[5]; IM Humulin R, 10 min
  Serum glucose level: 256.0 mg/dL
[5]; IM Humulin R, 15 min
  Serum glucose level: 216.8 mg/dL
[5]; IM Humulin R, 30 min
  Serum glucose level: 168.2 mg/dL
[5]; IM Humulin R, 60 min
  Serum glucose level: 82.0 mg/dL
[5]; IM Humulin R, 90 min
  Serum glucose level: 48.2 mg/dL
[5]; IM Humulin R, 120 min
  Serum glucose level: 18.0 mg/dL
[5]; IM Humulin R, 150 min
  Serum glucose level: 29.4 mg/dL
[5]; IM Humulin R, 180 min
  Serum glucose level: 28.8 mg/dL
[5]; IM Humulin R, 240 min
  Serum glucose level: 29.4 mg/dL
[5]; IM Humulin R, 360 min
  Serum glucose level: 115.8 mg/dL
[5]; LDI Example XI formulation in perflubron, 0.86 IU/kg, 0 min
  Serum glucose level: 175.7 mg/dL
[5]; LDI Example XI formulation in perflubron, 0.86 IU/kg, 5 min
  Serum glucose level: 218.8 mg/dL
[5]; LDI Example XI formulation in perflubron, 0.86 IU/kg, 10 min
  Serum glucose level: 211.7 mg/dL
[5]; LDI Example XI formulation in perflubron, 0.86 IU/kg, 15 min
  Serum glucose level: 198.2 mg/dL
[5]; LDI Example XI formulation in perflubron, 0.86 IU/kg, 30 min
  Serum glucose level: 143.3 mg/dL
[5]; LDI Example XI formulation in perflubron, 0.86 IU/kg, 60 min
  Serum glucose level: 83.2 mg/dL
[5]; LDI Example XI formulation in perflubron, 0.86 IU/kg, 90 min
  Serum glucose level: 38.2 mg/dL
[5]; LDI Example XI formulation in perflubron, 0.86 IU/kg, 120 min
  Serum glucose level: 31.2 mg/dL
[5]; LDI Example XI formulation in perflubron, 0.86 IU/kg, 150 min
  Serum glucose level: 31.7 mg/dL
[5]; LDI Example XI formulation in perflubron, 0.86 IU/kg, 180 min
  Serum glucose level: 33.4 mg/dL
[5]; LDI Example XI formulation in perflubron, 0.86 IU/kg, 240 min
  Serum glucose level: 49.2 mg/dL
[6]; IM, Humulin R, dose similar to 0.86 IU/kg, plasma insulin
  Cmax: 110.5 μU/ml
[6]; IM, Humulin R, plasma insulin
  AUC: 20770 μU min/ml
  Tmax: 1 h
[6]; LDI (4.5 ml/kg perflubron), Example XI formulation, 0.86 IU/kg
  AUC: 11100 μU min/ml
[6]; LDI (4.5 ml/kg perflubron), Example XI formulation, 0.86 IU/kg, plasma insulin
  Cmax: 210.4 μU/ml
